Assay results: patent US20130289119A1, “FORMULATION COMPRISING ARGININE, USE AND PREPARATION THEREOF” (OSPEDALE SAN RAFFAELE S.R.L., priority 2010, published 2013)

Experimental: In the present invention, the bio-availability and the vascular and metabolic effect of an oral administration of L-arginine (6.6 g) contained in the formulation of the invention (6 biscuits) compared either to the same food preparation (6 biscuits) prepared without the addition of L-arginine or to 6.6 g of powdered L-arginine were evaluated in healthy subjects.
Seven healthy subjects (2M/5F) participated in the study.
A complete medical history and a physical examination including height, weight, waist and hip circumferences and blood pressure measurements were taken for each subject. It was asked to all subjects to follow a 2000 kcal/die standard diet, according to LARN (Livelli di Assunzione Giornalieri Raccomandati di Nutrienti per la Popolazione Italiana) recommendations and to complete a 3 day food diary (two working days and one holiday day) before every test to obtain accurate information on short-term food intake. Food diaries were elaborated with a dedicated software to decode foods (Nutritionist Pro 2.5, Axial System, Stafford, Tex.), modified introducing the L-arginine contents, obtained from INRAN and USDA database, in more than 700 different foods items.
The portion of 6 biscuits further contained a total amount of 21.9 g of carbohydrates (17.9 g of starch and 4.0 g of sugars), 3.6 g of proteins, 7.5 g of fats and 4.3 g of fibers. A fixed amount of 250 ml of natural water was taken with the food preparation. […] A fixed amount of 250 ml of natural water was taken with the food preparation. • The third test consisted in the oral administration of 6.6 g of powdered L-arginine diluted in 250 ml of natural water. The Study Design is represented in FIG. 2. After an overnight fast, a 20-gauge plastic cannula (Abbocath T; Abbocath, Ireland LTD, Sling, Ireland) was inserted in a large antecubital vein for intermittent sampling. Samples for the evaluation of glucose, insulin, NOx and L-arginine levels were evaluated at 0, 30, 60, 90, 120, 180 and 240 minutes. c-GMP levels were evaluated at 0, 60, 120, 180 and 240 minutes.
Basal blood pressure was taken in supine position after 10 min of rest, and the mean of two measurements was used as the value, after that blood pressure was also taken at time 0, 120, 180 and 240 minutes. Forearm blood flow (FBF) was measured by strain-gauge venous occlusion plethysmography. Before any measurement was taken, the hand circulation was occluded using a wrist cuff inflated to 240 mmHg. Baseline blood flow was calculated as the mean of at least three values. Reactive hyperaemia (endothelium-dependent vasodilation) was measured after the release of a 5-min arterial occlusion, produced by inflating a standard sphygmomanometer cuff on the upper arm to 100 mmHg above systolic blood pressure (SBP). These measurement were performed at basal and every 60 min until the end of the study. Peripheral resistance was calculated as a ratio between mean blood pressure and the FBF.
Glucose levels were measured with spectrophotometric methods adapted to Cobas MIRA using commercial kits (ABX, Montpellier, France). Insulin and proinsulin levels were assayed with ELISA kits (Insulin ELISA, Mercodia, Uppsala, Sweden and Proinsulin ELISA, DRG, Marburg, Germany). NOx levels were evaluated through the measurement of metabolic end products, i.e., nitrite and nitrate, using enzymatic catalysis coupled with Griess reaction. c-GMP levels were measured with radioimmunoassay kits (NEN Life Science Products, Boston, Mass., USA). L-Arginine were extracted from plasma samples by cation-exchange Strata SCX 100-mg columns (Phenomenex) and assayed by high-performance liquid chromatography.

[1] = healthy subjects, oral 6.6 g L-arginine

## N=C(N)NCCC[C@H](N)C(=O)O [powdered L-Arginine, L-arginine]
both, human, in vivo, po
  Incremental area under the curve for L-Arginine (ΔAUC L-Arginine): 15050 ± 1353 µmol/L
Healthy subjects, forearm plethysmography
  Percentage incremental increase of post-ischemic blood flow vs food preparation not containing L-Arginine: significantly (p<0.02) increased
[1]
  cGMP plasma levels vs food preparation not containing L-Arginine: significantly (p<0.03) higher
  nitric oxide (NOx) plasma levels vs food preparation not containing L-Arginine: significantly (p<0.03) higher
  ΔAUC NOx vs food product not containing L-Arginine: significantly (p<0.04) increased
  ΔAUC cGMP vs food product not containing L-Arginine: significantly (p<0.04) increased
